Structures can show the parent of a compound that is named as a salt.
Legend:
[1] = molecular target: T1, dopamine (DA) reuptake sites (Rattus norvegicus, UniProt P23977); experiment: displacement of [3H]GBR 12935 from dopamine reuptake sites, striatal membranes; type: binding; details: 10^-6 M test compound, [3H]GBR 12935 1 nM, one test only, read-out: DA uptake (% displacement of specific binding of tritiated ligand)
T1 construct: Striatal tissue from the brains of male Charles River rats weighing 150-250 g; from tissue; host or cells: rat brain striatum (crude synaptosomes in A1, washed membranes in A4)
Protocol: Striatal tissue from the brains of male Charles River rats weighing 150-250 g was homogenised in ice-cold 0.32M sucrose (1:80 w/v) using a motor driven teflon pestle (12 strokes, 800 rpm) and centrifuged at 1000 g for 12 minutes. The supernatant was stored on ice and the pellet was resuspended in 0.32M sucrose (1:80 w/v) and centrifuged at 850 g for 10 minutes. Combined supernatants were diluted to 1:320 w/v with ice-cold 50 mM Tris-HCl, pH 7.4 (at 25° C.) containing 200 mM sodium chloride and 5 mM potassium chloride (Tris buffer) and centrifuged at 40,000 g for 10 minutes. The resulting pellet was resuspended in 10 ml of 50 mM Tris buffer, incubated at 37° C. for 10 min, diluted in 50 mM Tris buffer (1:320 w/v) and recentrifuged at 40,000 g for 10 minutes. The final pellet was resuspended in 50 mM Tris buffer (equivalent to 1.25 mg wet weight of tissue/ml) and used immediately in the binding assay. All centrifugations were carried out at 4° C.
Membranes (800 μl; equivalent to 1 mg wet weight of tissue/tube) were incubated with 100 μl [^3 H]GBR 12935 at a single concentration of 1 nM and 100 μl of distilled water (total binding) or 100 μl of test compound (10^-6 M) or 100 μl of mazindol (1 μM; non-specific binding) for 90 min at 4° C.
Membrane bound radioactivity was recovered by filtration under vacuum through Whatman GF/C filters, pre-soaked for 1 h in 0.5% polyethylenimine,using a Brandel cell harvester. Filters were rapidly washed with 16 ml of ice-cold 50 mM Tris-HCl, pH 7.4 and radioactivity determined by liquid scintillation counting (2 ml Packard MV Gold scintillator).
(§1) For each of these tests measuring the ability of compounds of Formula I to displace standard ligands from dopamine (DA), 5-hydroxytryptamine (5-HT) and noradrenaline (NA) reuptake sites in vitro, the percentage displacement of specific binding of tritiated ligand by 10^-6 M test compound was calculated in the following way:
(§2) Firstly, specific binding of tritiated ligand in the absence (A) and presence (B) of test compound was determined:
(§3) In the absence of compound:
(§4) A (dpm)=Total binding (dpm)-Non-specific binding (dpm)
(§5) In the presence of compound (10^-6 M):
(§6) B (dpm)=Binding at 10^-6 M (dpm)-Non-specific binding (dpm)
(§7) The specific binding of tritiated ligand in the presence (B) of compound was then converted to a percentage of specific binding of tritiated ligand in the absence (A) of compound:
(§8) % Specific binding at 10^-6 M=B (dpm)/A(dpm)×100
(§9) The percentage displacement of specific binding of trtiated ligand by the test compound (10^-6 M) was then obtained by subtraction of the percentage specific binding in the presence of compound from the percentage specific binding in the absence of compound, which is taken as the maximum binding and so equals 100%:
(§10) % Displacement at 10^-6 M=100-% Specific binding at 10^-6 M.
(§11) The values given below in Table 2 for examples 6 to 76 are % displacement of specific binding of tritiated ligand by 10^-6 M test compound and represent results from one test only. IA refers to <50% displacement.

[2] = molecular target: T2, 5-hydroxytryptamine (5-HT) reuptake sites (Rattus norvegicus, UniProt P31652); experiment: displacement of [3H]paroxetine from 5-HT reuptake sites, frontal cortical membranes; type: binding; details: 10^-6 M test compound, [3H]paroxetine 30 pM, one test only, read-out: 5-HT uptake (% displacement of specific binding of tritiated ligand)
T2 construct: Frontal cortical tissue from the brains of male Sprague-Dawley rats; from tissue; host or cells: rat brain frontal cortex (crude synaptosomes in A2, washed membranes in A5)
Protocol: Frontal cortical tissue from the brains of male Charles River rats weighing 150-250 g was homogenised in ice-cold 0.25M sucrose (1:30 w/v) using a Kinematic polytron (speed setting 6 for 30 seconds) and centrifuged at 1000 g for 12 minutes. The supernatant was stored on ice and the pellet was resuspended in 0.25M sucrose (1:20 w/v) and centrifuged at 850 g for 10 minutes. Combined supernatants were diluted to 1:100 w/v with ice-cold 50 mM Tris-HCl, pH 7.5 (at 25° C.) containing 120 mM sodium chloride and 5 mM potassium chloride (Tris buffer) and centrifuged at 40,000 g for 10 minutes. The resulting pellet was resuspended in 50 mM Tris buffer (1:100 w/v) and recentrifuged at 40,000 g for 10 minutes. The final pellet was resuspended in 50 mM Tris buffer (equivalent to 2 mg wet weight of tissue/ml) and used immediately in the binding assay. All centrifugations were carried out at 4° C.
Membranes (1000 μl; equivalent to 2 mg wet weight of tissue/tube) were incubated with 200 μl [^3 H]paroxetine at a single concentration of 30 pM and 200 μl of distilled water (total binding) or 200 μl of test compound (10^-6 M) or 200 μl of citalopram (1 μM; non-specific binding) for 2 h at 22° C.
Membrane bound radioactivity was recovered by filtration under vacuum through Whatman GFIC filters using a Brandel cell harvester. Filters were rapidly washed with 16 ml ice-cold 50 mM Tris buffer and radioactivity determined by liquid scintillation counting (2 ml Packard MV Gold scintillator).
as §1, §2, §3, §4, §5, §6, §7, §8, §9, §10, §11

[3] = molecular target: T3, noradrenaline (NA) reuptake sites (Rattus norvegicus, UniProt Q63380); experiment: displacement of [3H]nisoxetine from noradrenaline reuptake sites, frontal cortical membranes; details: 10^-6 M test compound, [3H]nisoxetine 0.6 nM, one test only, read-out: NA uptake (% displacement of specific binding of tritiated ligand)
T3 construct: Frontal cortical tissue from the brains of male Sprague-Dawley rats; from tissue; host or cells: rat brain frontal cortex (crude synaptosomes in A3, washed membranes in A6)
Protocol: Frontal cortical tissue from the brains of male Charles River rats weighing 150-250 g was homogenised in ice-cold 50 mM Tris-HCl, pH 7.4 (at 25° C.) containing 120 mM sodium chloride and 5 mM potassium chloride (Tris buffer; 1:60 w/v) using a Kinematic polytron (speed setting 6 for 30 seconds) and centrifuged at 40,000 g for 10 minutes. The supernatant was discarded and the pellet rehomogenised in Tris buffer, 1:60 w/v, and centrifuged at 40,000 g for 10 minutes. This step was repeated twice more so that, in total, the brain tissue was homogenised and centrifuged four times. The final pellet was resuspended in 50 mM Tris-HCl, pH 7.4 containing 300 mM sodium chloride and 5 mM potassium chloride (equivalent to 25 mg wet weight of tissue/ml) and used immediately in the binding assay. All centrifugations were performed at 4° C.
Membranes (400 μl; equivalent to 10 mg wet weight of tissue/tube) were incubated with 50 μl [^3 H]nisoxetine at a single concentration of 0.6 nM and 50 μl of distilled water (total binding) or 50 μl of test compound (10^-6 M) or 50 μl of mazindol (1 μM; non-specific binding) for 4 h at 4° C.
Membrane bound radioactivity was recovered by filtration under vacuum through Skatron 11734 filters using a Skatron cell harvester. Filters were rapidly washed with ice-cold 50 mM Tris-HCl, pH 7.4 containing 120 mM sodium chloride and 5 mM potassium chloride (wash setting 9,9,0) and radioactivity determined by liquid scintillation counting (1 ml Packard MV Gold scintillator).
as §1, §2, §3, §4, §5, §6, §7, §8, §9, §10, §11

T1 sequence (P23977 whole entry): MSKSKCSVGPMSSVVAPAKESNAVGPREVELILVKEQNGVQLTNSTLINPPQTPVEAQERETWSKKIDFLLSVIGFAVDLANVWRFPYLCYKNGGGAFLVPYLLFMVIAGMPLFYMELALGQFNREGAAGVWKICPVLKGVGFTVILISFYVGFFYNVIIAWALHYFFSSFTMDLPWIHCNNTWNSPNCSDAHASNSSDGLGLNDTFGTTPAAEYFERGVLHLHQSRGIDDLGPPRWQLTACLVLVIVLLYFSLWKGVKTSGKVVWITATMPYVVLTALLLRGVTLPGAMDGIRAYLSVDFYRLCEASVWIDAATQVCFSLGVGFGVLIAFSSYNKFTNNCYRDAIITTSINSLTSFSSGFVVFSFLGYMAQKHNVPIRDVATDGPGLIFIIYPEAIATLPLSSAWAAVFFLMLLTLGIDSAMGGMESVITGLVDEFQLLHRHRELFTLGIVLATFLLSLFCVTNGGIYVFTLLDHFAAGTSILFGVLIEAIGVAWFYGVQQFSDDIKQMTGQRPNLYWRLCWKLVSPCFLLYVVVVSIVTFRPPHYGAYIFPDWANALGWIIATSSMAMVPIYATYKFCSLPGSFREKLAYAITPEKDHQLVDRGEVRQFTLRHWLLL
T2 sequence (P31652 whole entry): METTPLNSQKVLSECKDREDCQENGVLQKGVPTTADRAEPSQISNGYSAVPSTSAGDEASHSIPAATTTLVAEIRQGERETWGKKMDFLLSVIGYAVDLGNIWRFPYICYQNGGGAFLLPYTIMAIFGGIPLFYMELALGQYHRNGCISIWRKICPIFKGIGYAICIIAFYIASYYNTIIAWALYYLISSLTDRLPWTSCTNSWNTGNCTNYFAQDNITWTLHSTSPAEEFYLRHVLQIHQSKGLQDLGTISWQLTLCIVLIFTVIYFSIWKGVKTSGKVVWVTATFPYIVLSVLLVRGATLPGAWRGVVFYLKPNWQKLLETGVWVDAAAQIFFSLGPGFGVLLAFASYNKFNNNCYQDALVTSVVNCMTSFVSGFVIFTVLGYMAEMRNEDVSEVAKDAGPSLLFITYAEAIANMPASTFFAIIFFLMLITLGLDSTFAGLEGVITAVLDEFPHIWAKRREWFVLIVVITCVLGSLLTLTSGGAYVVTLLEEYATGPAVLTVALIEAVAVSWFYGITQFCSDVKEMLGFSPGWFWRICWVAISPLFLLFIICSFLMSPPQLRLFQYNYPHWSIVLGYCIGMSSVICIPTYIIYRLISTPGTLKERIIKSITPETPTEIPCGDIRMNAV
T3 sequence (Q63380 1-617): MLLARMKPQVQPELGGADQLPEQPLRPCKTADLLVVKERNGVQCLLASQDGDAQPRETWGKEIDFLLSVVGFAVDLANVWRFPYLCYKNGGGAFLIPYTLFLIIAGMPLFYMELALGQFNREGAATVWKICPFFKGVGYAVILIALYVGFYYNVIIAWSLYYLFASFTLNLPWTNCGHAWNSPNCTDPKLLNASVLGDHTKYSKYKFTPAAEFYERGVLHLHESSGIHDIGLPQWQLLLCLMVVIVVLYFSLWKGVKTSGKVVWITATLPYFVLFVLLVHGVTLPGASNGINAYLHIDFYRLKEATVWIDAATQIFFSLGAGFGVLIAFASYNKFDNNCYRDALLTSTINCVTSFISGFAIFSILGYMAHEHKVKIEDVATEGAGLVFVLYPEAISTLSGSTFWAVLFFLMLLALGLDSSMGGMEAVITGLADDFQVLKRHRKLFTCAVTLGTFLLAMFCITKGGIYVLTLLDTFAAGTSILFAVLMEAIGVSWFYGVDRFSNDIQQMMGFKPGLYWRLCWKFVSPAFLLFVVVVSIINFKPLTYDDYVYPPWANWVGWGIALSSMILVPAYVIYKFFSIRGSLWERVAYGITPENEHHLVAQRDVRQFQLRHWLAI

| SMILES | inhibition at 1 µM [1] | inhibition at 1 µM [2] | inhibition at 1 µM [3] |
| --- | --- | --- | --- |
| CCCN=c1scc(C2(c3ccc4ccccc4c3)CCC2)n1CCC [Example 38, 4-[-(2-Naphthyl)cyclobutyl]-3-propyl-2-propylimino-2,3-dihydrothiazole hydrobromide] | 111% | 102% | 95% |
| CC(C)N=c1scc(C2(c3ccc4ccccc4c3)CCC2)n1C(C)C [Example 39, 3-Isopropyl-2-isopropylimino-4-[1-(2-naphthyl)cyclobutyl]-2,3-dihydrothiazole hydrobromide] | 108% | 100% | 58% |
| CCCCN=c1scc(C2(c3ccc4ccccc4c3)CCC2)n1CCCC [Example 40, 3-Butyl-2-butylimino-4-[1-(2-naphthyl)cyclobutyl]-2,3-dihydrothiazole hydrobromide] | 113% | 97% | < 50% |
| CC(C)CN=c1scc(C2(c3ccc4ccccc4c3)CCC2)n1CC(C)C [Example 41, 3-lsobutyl-2-isobutylimino-4-[1-(2-naphthyl)cyclobutyl]-2,3-dihydrothiazolehydrobromide] | 107% | 98% | 79% |
| C=CCN=c1scc(C2(c3ccc4ccccc4c3)CCC2)n1CC=C [Example 42, 3-Allyl-2-allylimino-4-[1-(2-naphthyl)cyclobutyl]-2,3-dihydrothiazole hydrobromide] | 113% | 101% | 93% |
| c1ccc2cc(C3(c4csc(=NCC5CC5)n4CC4CC4)CCC3)ccc2c1 [Example 43, 3-Cyclopropylmethyl-2-cyclopropylmethylimino4-[1-(2-naphthyl)cyclobutyl]-2,3-dihydrothiazole hydrobromide] | 113% | 101% | 93% |
| c1ccc(CN=c2scc(C3(c4ccc5ccccc5c4)CCC3)n2Cc2ccccc2)cc1 [Example 44, 3-Benzyl-2-benzylimino-4-[1-(2-naphthyl)cyclobutyl]-2,3-dihydrothiazole hydrobromide] | 96% | 72% | < 50% |
| Fc1ccc(CN=c2scc(C3(c4ccc5ccccc5c4)CCC3)n2Cc2ccc(F)cc2)cc1 [Example 45, 3-(4-Fluorobenzyl)-2-(4-fluorobenzylimino)-4-[1-(2-naphthyl)cyclobutyl]-2,3-dihydrothiazole hydrobromide] | 96% | 59% | < 50% |
| c1ccc(CCN=c2scc(C3(c4ccc5ccccc5c4)CCC3)n2CCc2ccccc2)cc1 [Example 46, 4-1-(2-Naphthyl)cyclobutyl]-3-phenethyl-2-phenethylimino-2,3-dihydrothiazole hydrobromide] | 98% | 51% | < 50% |
| c1cncc(CN=c2scc(C3(c4ccc5ccccc5c4)CCC3)n2Cc2cccnc2)c1 [Example 47, 4-[1-(2-Naphthyl)cyclobutyl]-3-(3-pyridylmethyl)-2-(3-pyridylmethylimino)-2,3-dihydrothiazole hydrobromide] | 109% | 99% | 92% |
| c1coc(CN=c2scc(C3(c4ccc5ccccc5c4)CCC3)n2Cc2ccco2)c1 [Example 48, 3-Furfuryl-2-furfurylimino-4-[1-(2-naphthyl)cyclobutyl]-2,3-dihydrothiazolehydrobromide] | 101% | 94% | < 50% |
| c1ccc(N=c2scc(C3(c4ccc5ccccc5c4)CCC3)n2-c2ccccc2)cc1 [Example 49, 4-[1-(2-Naphthyl)cyclobutyl]-3-phenyl-2-phenylimino-2,3-dihydrothiazole hydrobromide] | 69% | 56% | < 50% |
